For this experiment, the target named is T1, human GPR119 receptor (Homo sapiens, UniProt Q8TDV5).
T1 construct: host or cells: GeneBLAzer T-Rex GPR 119 CHO-K1 DA cells (CHO-K1)
T1 sequence (Q8TDV5 1-335): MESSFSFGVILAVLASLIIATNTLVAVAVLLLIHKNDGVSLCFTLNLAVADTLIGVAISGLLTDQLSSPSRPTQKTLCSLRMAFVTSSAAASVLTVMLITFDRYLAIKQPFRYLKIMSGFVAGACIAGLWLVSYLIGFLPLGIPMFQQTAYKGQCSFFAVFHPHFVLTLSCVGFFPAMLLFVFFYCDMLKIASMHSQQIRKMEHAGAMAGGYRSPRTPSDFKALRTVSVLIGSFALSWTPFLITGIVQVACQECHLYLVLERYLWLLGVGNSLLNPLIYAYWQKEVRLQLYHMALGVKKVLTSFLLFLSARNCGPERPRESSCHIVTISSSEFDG
Nature of the experiment: Activity test for human GPR119 receptor (GeneBLAzer T-Rex GPR 119 CHO-K1 DA cells, fluorescence reporter). Type of experiment: cell-based. As to conditions: 5 hours treatment; for activity at 0.1 µM: test compound conc. 0.1 μM; for activity at 0.1 µM / activity at 1 µM / activity at 10 µM: human GPR119 CHO-K1 reporter cells, ratio to vehicle control well, read-out: % Activation; for activity at 1 µM: test compound conc. 1 μM; for activity at 10 µM: test compound conc. 10 μM. How it is done: As a human GPR119 receptor expression cell for this test, the cell line “GeneBLAzer™ T-Rex GPR 119 CHO-K1 DA cells” that is commercially available from Invitrogen, was used. The cell was incubated in the DMEM media containing 1% dialyzed fetal bovine serum etc. The cell incubator was kept at constant temperature and constant humidity of 37° C., 5% CO2.
The human GPR119 receptor expressing cell was used to this test. Each of test compounds was added to be final concentrations of 0.1, 1, 10 μM in 96 well and tested in duplicate. A fixed amount of cell was added to each well of 96 well separately, and then treated with the test compound for 5 hours. After treatment of color development agent for 2 hours, the fluorescence value was determined with plate reader. To the luminous wavelength of control well, which was not treated with the agonist sample, but in which only a vehicle (i.e., cell) was contained, the ratio of the luminous wavelength of test well, which was treated with the agonist sample, was calculated, and then converted to obtain % value.
All the results were expressed as mean±SD, and each test groups and the control group were compared using student's t-test to adjudge the effects of each test groups.

Consider `O=C(c1ccc(-c2ccc(OCC3CCN(CC4(C(F)(F)F)CCC4)CC3)nc2)cc1F)N1CC[C@H](O)C1` [Compound 720, (8)-(2-fluoro-4-(6-((1-((1-(trifluoromethyl)cyclobutyl)methyl)piperidin-4-yl)methoxy)pyridine-3-yl)phenyl)(3-hydroxypyrrolidine-1-yl)methanone], for which the activity at 0.1 µM is 160%, the activity at 1 µM was found to be 228% and the activity at 10 µM stood at 262%.

`O=C(c1ccc(-c2cnc(OCC3CCN(CC4(C(F)(F)F)CCC4)CC3)cn2)cc1F)N1CCC[C@@H](O)C1` [Compound 1013, (R)-(2-fluoro-4-(5-((1-((1-(trifluoromethyl)cyclobutyl)methyl)piperidin-4-yl)methoxy)pyrazine-2-yl)phenyl)(3-hydroxypiperidin-1-yl)methanone]: the activity at 0.1 µM is 410%, the activity at 1 µM came out at 490% and the activity at 10 µM came out at 426%. In addition, the “% Activation” value (human GPR119 receptor expressing cell, test concentrations 0.1, 1, 10 μM (concentration not given)) amounted to 490%.

Take `NC(=O)[C@@H]1CCCN1C(=O)c1ccc(-c2ccc(OCC3CCN(CC4(C(F)(F)F)CCC4)CC3)nc2)cc1F` [Compound 722, (S)-1-(2-fluoro-4-(6-((1-((1-(trifluoromethyl)cyclobutyl)methyl)piperidin-4-yl)methoxy)pyridine-3-yl)benzoyl)pyrrolidine-2-carboxamide]: the activity at 0.1 µM amounted to 198%, the activity at 1 µM was found to be 269% and the activity at 10 µM came to 261%.

In the case of `CCC(F)(CC)CN1CCC(COc2cnc(-c3ccc(C(=O)N4CCCC[C@@H]4C(N)=O)c(F)c3)nc2)CC1` [Compound 1055, (R)-1-(4-(5-((1-(2-ethyl-2-fluorobutyl)piperidin-4-yl)methoxy)pyrimidin-2-yl)-2-fluorobenzoyl)piperidine-2-carboxamide], the activity at 0.1 µM amounted to 407%, the activity at 1 µM came to 474% and the activity at 10 µM was found to be 408%.

For the molecule `O=C(c1ccc(-c2ccc(OCC3CCN(CC4(C(F)(F)F)CCC4)CC3)cc2)cc1)N1CCC[C@@H](O)C1` [Compound 794, (R)-(3-hydroxypiperidin-1-yl)(4′-((1-((1-(trifluoromethyl)cyclobutyl)methyl)piperidin-4-yl)methoxy)biphenyl-4-yl)methanone], the activity at 0.1 µM came out at 256%, the activity at 1 µM came to 296% and the activity at 10 µM stood at 252%.

The values are drawn from patent US9944600B2, “Piperidine derivatives for GPR119 agonist” (CHONG KUN DANG PHARMACEUTICAL CORP., priority 2012, dated 2018).
